Reference: patent US20240368133A1, “Compounds for the Treatment of Pain, in Particular, Neuropathic Pain, and/or Other Diseases or Disorders that are Associated with AT2R and/or AT2R Mediated Signaling” (Confo Therapeutics N.V., priority 2021, published 2024)

Tests used:
Format in all cases: in vitro ADME
[1] = PAMPA (Parallel Artificial Membrane Permeability Assay), GIT model
From the text: The Parallel Artificial Membrane Permeability Assay (PAMPA) is used as an in vitro model of passive, transcellular permeation. PAMPA eliminates the added complexities of active transport, allowing ranking compounds just based on a simple membrane permeability property. This simple assay also allows evaluation of permeability over a large pH range, which is valuable for a preliminary understanding of how orally delivered compounds might be absorbed across the entire gastrointestinal tract. Depending upon the types of lipids used and other experimental conditions, PAMPA may be designed to model absorption in gastrointestinal tract (PAMPA-GIT), blood-brain barrier penetration (PAMPA-BBB) or skin penetration (Skin PAMPA).
All steps of the PAMPA were carried out according to pION Inc. PAMPA Explorer™ Manual. The main principle of the assay is the incubation of compound in donor chamber (a well in Donor Plate) with aqueous buffer, which is separated from acceptor chamber (a well in Acceptor Plate) with another buffer by a phospholipid or hydrocarbon membrane fixed on a filter support. After the test, concentrations in the corresponding donor and acceptor wells are measured and permeability is calculated.
GIT model was simulated using GIT-0 phospholipid mix. Verapamil and quinidine (high permeability) and ranitidine (low permeability) were used as reference compounds. All compounds were tested in triplicates.
Solutions of the test and reference compounds were added into the Donor Plate wells in Prisma HT buffer (pH 7.4). Acceptor Sink Buffer was added into each well of the Acceptor Plate. Incubation was done at room temperature for 4 hours without stirring. After incubation, aliquots from both plates were transferred to optic UV-Vis plates and optic plates were read on microplate reader in absorbance mode in the range of 202-500 nm with 4 nm step. Compounds with low UV-Vis signal were detected by LC-MS/MS method (API 3000 (PE Sciex)). Both the positive and negative ion modes of the TurboIonSpray ion source were used. Acquisition and analysis of the data were performed using Analyst 1.5.2 software (PE Sciex). The apparent permeability coefficient was calculated according to the equation shown below:
with: • VD=volume of transport buffer in donor compartment • A=surface area of the lipids in the insert (effective growth area of the insert—0.3 sq.cm) • t=time of the assay, seconds • Cdon=final concentration of test compound in the donor compartment • Cref=starting concentration of test compound in the donor compartment • εa=apparent filter porosity, equals to 0.76
[formula] • Cacc=final concentration of test compound in the […] compartment • τss=steady state lag time, estimated as (54RM+1)×60 s
Values of Cdon/Cref and Cacc/Cref are practically calculated using optical absorbance data. Mass retention by the lipid membrane is a normal condition in PAMPA assays for hydrophobic compounds but high levels of the mass retention makes compounds more permeable in vivo than it could be predicted from PAMPA assay. Mass retention was calculated as follows:
• [drug]acc=final OD of test compound in acceptor well • [drug]d=starting OD of test compound in a donor well • [drug]fd=final OD of test compound in a donor well

[2] = Plasma protein binding (equilibrium dialysis), mouse; settings: for fraction unbound: equilibrium dialysis, read-out: PPB (%), mouse (converted); for recovery: plasma (undiluted, freshly thawed), PPB assay recovery
Experimental: (§1) The assay was performed in a multiple-use 96-well dialysis unit (HTD96b dialyzer). Each individual well unit consisted of 2 chambers separated by a vertically aligned dialysis membrane of predetermined pore size (MWCO 12-14 kDa). 120 μl of non-diluted freshly thawed mouse, rat or human plasma spiked with the compound (1 μM, final DMSO concentration 1%) was added to one chamber and the same volume of PBS buffer pH 7.4 to the other chamber. HTD96b dialyzer was covered with adhesive sealing film and incubated at 37° C., shaking at 100 rpm for 5 hours.
(§2) For samples preparation, an aliquot of the content of each chamber had been mixed with the same volume of the blank opposite matrix. In order to define non-specific loss of the compound during this assay, a standard solution was created by mixing an aliquot of spiked plasma with blank buffer without dialysis. Samples were diluted 10-fold with 100% acetonitrile with subsequent plasma proteins sedimentation by centrifuging at 6000 rpm for 5 minutes. Supernatants were analyzed using HPLC system coupled with tandem mass spectrometer (API3000 PE Sciex). Acquisition and analysis of the data were performed using Analyst 1.5.2 software (PE Sciex). The percentage of plasma protein bound compound and recovery were calculated using following equations: […]
(§3) The percentage of plasma protein bound compound and recovery were calculated using following equations:
(§4) with: • Cplasma=peak area of the compound in the plasma/peak area of the IS in the plasma • Cbuffer=peak area of the compound in the buffer/peak area of the IS in the buffer • ‘Concentration’ is the ratio between compound and IS peak areas
(§5) The recovery is a control, which allows to be sure that the compound has not a non-specific binding to the plates or is not stable in the plasma in these conditions:
(§6) with: • PBS=(ratio of the peak area of the compound/peak area of the IS) in the PBS compartment after 4 h • Plasma=(ratio of the peak area of the compound/peak area of IS) in the plasma compartment after 4 h • Recov=Recovery=ratio of the peak are of the compound I the well recovery/peak area of the IS in the well recovery at TO
(§7) The solubility of the compound in the final test concentration in PBS is checked by microscope to indicate whether precipitation is observed or not. If a precipitate is observed, no data of PPB is generated.

[3] = Plasma protein binding (equilibrium dialysis), human; settings: for fraction unbound: equilibrium dialysis, read-out: PPB (%), human (converted); for recovery: plasma (undiluted, freshly thawed), PPB assay recovery
Experimental: as §1, §2, §3, §4, §5, §6, §7

Structure (SMILES) | Mass retention (%) [1] [%] | Permeability Papp, Log10 (10^−6 cm/s) [1] | fraction unbound [2] | recovery [2] [%] | fraction unbound [3] | recovery [3] [%]
CCC1CN(c2cc(CC(C)C)cc(F)c2-c2nn[nH]n2)CCN1Cc1cccnn1 (stereo not shown) [Compound A-178, 3-[[2-ethyl-4-[3-fluoro-5-isobutyl-2-(2H-tetrazol-5-yl)phenyl]piperazin-1-yl]methyl]pyridazine] |  |  | 0.1 | 93 | 0.04 | 99
CC(C)Cc1ccc(-c2nn[nH]n2)c(N2CCN(Cc3nc4ccccc4c(=O)[nH]3)CC2)c1 [Compound A-31, 2-[[4-[5-isobutyl-2-(2H-tetrazol-5-yl)phenyl]piperazin-1-yl]methyl]-3H-quinazolin-4-one] |  |  | < 0.05 | 88 | < 0.08 | 82
CC(C)Cc1cc(F)c(-c2nn[nH]n2)c(N2CCN(Cc3ccccn3)[C@@H](C)C2)c1 [Compound A-217, (2S)-4-[3-fluoro-5-isobutyl-2-(2H-tetrazol-5-yl)phenyl]-2-methyl-1-(2-pyridylmethyl)piperazine] |  |  |  |  | 0.004 | 100
CC(C)Oc1ccc(-c2nn[nH]n2)c(N2CCN(Cc3nc4ccccc4c(=O)[nH]3)CC2)c1 [Compound A-32] | 20 | −4.6 Log10 (10^−6 cm/s) |  |  |  | 
CC(C)Cc1cc(F)c(-c2nn[nH]n2)c(N2CCN(Cc3cccnn3)C(C)C2)c1 (stereo not shown) [Compound A-173, 3-[[4-[3-fluoro-5-isobutyl-2-(2H-tetrazol-5-yl)phenyl]-2-methyl-piperazin-1-yl]methyl]pyridazine] |  |  | 0.12 | 92 | 0.05 | 94
CC(C)Oc1ccc(-c2nn[nH]n2)c(N2CCN(Cc3nc4ccccc4s3)CC2)c1 [Compound A-51, 2-[[4-[5-isoprop-oxy-2-(2H-tetrazol-5-yl)phenyl]piper-azin-1-yl]methyl]-1,3-benzothiazole] | 14 | −4.2 Log10 (10^−6 cm/s) |  |  |  | 
CC(C)Cc1cc(F)c(-c2nn[nH]n2)c(N2CC(C)N(Cc3cccnn3)CC2C)c1 (stereo not shown) [Compound A-183, 3-[[4-[3-fluoro-5-isobutyl-2-(2H-tetrazol-5-yl)phen-yl]-2,5-dimethyl-piperazin-1-yl]-methyl]pyridazine] |  |  | 0.13 | 90 | 0.06 | 96

More lines, now with the values ahead:

Mass retention (%) [1] [%] | Permeability Papp, Log10 (10^−6 cm/s) [1] | fraction unbound [2] | recovery [2] [%] | fraction unbound [3] | recovery [3] [%] | Structure (SMILES)
28 | <−7 Log10 (10^−6 cm/s) |  |  |  |  | CC(C)Cc1ccc(-c2nn[nH]n2)c(N2CCN(Cc3nc4ccccc4n3C)CC2)c1 [Compound A-20, 2-[[4-[5-isobutyl-2-(2H-tetrazol-5-yl)-phenyl]piperazin-1-yl]methyl]-1-meth-yl-benzimidazole]
24 | <−7 Log10 (10^−6 cm/s) |  |  |  |  | CC(C)Oc1ccc(-c2nn[nH]n2)c(N2CCN(Cc3nc4ccccc4n3C)CC2)c1 [Compound A-24, 2-[[4-[5-isopropoxy-2-(2H-tetrazol-5-yl)phenyl]piperazin-1-yl]methyl]-1-methyl-benzimidazole]
8 | <−7 Log10 (10^−6 cm/s) |  |  |  |  | CCCCNC(=O)NS(=O)(=O)c1ccc(C(F)(F)F)cc1N1CCN(Cc2nc3ccccc3n2C)CC1 [Compound A-10, 1-butyl-3-[2-[4-[(1-methylbenzimidazol-2-yl)methyl]piperazin-1-yl]-4-(trifluoromethyl)phenyl]sulfonyl-urea]
10 | <−7 Log10 (10^−6 cm/s) |  |  |  |  | CCCCOC(=O)NS(=O)(=O)c1ccc(C(F)(F)F)cc1N1CCN(Cc2nc3ccccc3n2C)CC1 [Compound A-09, butyl N-[2-[4-[(1-methylbenzimidazol-2-yl)methyl]piperazin-1-yl]-4-(trifluoromethyl)phenyl]sulfonylcarbamate]
 |  | 0.07 | 96 | 0.03 | 95 | CCC1CN(Cc2cccnn2)CCN1c1cc(CC(C)C)cc(F)c1-c1nn[nH]n1 (stereo not shown) [Compound A-181, 3-[[3-ethyl-4-[3-fluoro-5-isobutyl-2-(2H-tetrazol-5-yl)phenyl]piperazin-1-yl]methyl]pyridazine]
 |  | 0.22 | 97 | 0.05 | 83 | CC(C)Cc1ccc(-c2nn[nH]n2)c(N2CCN(Cc3cccnn3)CC2)c1 [Compound A-90, 3-[[4-[5-isobutyl-2-(2H-tetrazol-5-yl)phenyl]piperazin-1-yl]methyl]pyridazine]
0 | −5.5 Log10 (10^−6 cm/s) | 0.027 | 95 | 0.026 | 99 | CC(C)Cc1cc(F)c(-c2nn[nH]n2)c(N2CCN(Cc3cccnn3)[C@@H](C)C2)c1 [Compound A-174, 3-[[(2S)-4-[3-fluoro-5-isobutyl-2-(2H-tetrazol-5-yl)phenyl]-2-methyl-piperazin-1-yl]methyl]pyridazine]
7 | <−7 Log10 (10^−6 cm/s) |  |  |  |  | CCCCNC(=O)NS(=O)(=O)c1ccc(C)cc1N1CCN(Cc2nc3ccccc3n2C)CC1 [Compound A-12, 1-butyl-3-[4-methyl-2-[4-[(1-methylbenzimidazol-2-yl)methyl]piperazin-1-yl]phenyl]sulfonyl-urea]
